From PubChem BioAssay AID1956 (SRMLSC, 2009) come the findings set out here.

The source made the active and inactive calls. Cut-off read from the data, not from the text of the source: active = maximum fold increase above about 1.5; inconclusive = no clear call, values can overlap the other calls; inactive = below that; tested in PC3 cells. A value given as a limit tells only on which side of the number the result lay.

The subject of this test is HSV replication augmentation in cells, fold increase. Description: compounds boosting herpes simplex virus growth – fold increase, host cell viability (AID 1956).

On to `O=C(O)/C(=C\c1ccc(Br)cc1)c1ccc(S(=O)(=O)N2CCCCC2)s1`, for which the EC50 (commonly the concentration at which the effect is half-maximal) was > 25 µM (inactive).

For `Cc1cccc(N=C2NC(=O)/C(=C/C=C/c3ccco3)S2)c1`, the EC50 was > 25 µM (inactive). `NC(=S)Nc1cc(Cl)cc(Cl)c1`: the EC50 is > 25 µM (inactive). With `COc1ccc(C2C(C#N)=C(N)N(c3sc4c(c3C#N)CCCC4)C3=C2C(=O)CC(C)(C)C3)cc1` (stereo unspecified) the figure was > 25 µM (inactive); with `CC(C)(C)c1cc(-c2n[nH]c(=S)n2-c2ccccc2F)n[nH]1`, > 25 µM (inactive).

Take `O=C1NC(c2ccccc2)=N/C1=C/c1ccco1`: the EC50 was > 25 µM (inactive). In the case of `Cc1nc2ccccc2c2oc(C(=O)N3CCc4ccccc4C3)cc12`, the EC50 is > 25 µM (inactive). Take `C=CCN1C(=O)[C@]2(c3ccccc31)C1CCCC=C1C(C#N)=C(N)C2(C#N)C#N` (stereo partly specified): the EC50 was > 25 µM (inactive).

Regarding `CN(CC1CCOCC1)C(=O)CC1C(=O)NCCN1CC1CCCCC1` (stereo unspecified), the EC50 is > 25 µM (inactive).

Turning to `NNc1nc(-c2ccccc2Cl)nc2sc3c(c12)CCCC3`, the EC50 is > 25 µM (inactive). On to `CN1C(=O)C(C2c3ccccc3C(=O)N2Cc2ccc([N+](=O)[O-])cc2)C(=O)N(C)C1=O` (stereo unspecified), for which the EC50 is > 25 µM (inactive).

On to `CCOCCCNC(=O)CN1C(=O)C(CC)Oc2ccccc21` (stereo unspecified), for which the EC50 was > 25 µM (inactive). For the compound `Nc1ccccc1Nc1cc(-c2ccccc2)[nH]n1`, the EC50 was 10.9 µM (inactive). For the compound `COc1ccc(OC2C(=O)N(Cc3ccc4c(c3)OCO4)C2c2sccc2C)cc1` (stereo unspecified), the EC50 is > 25 µM (inactive). In the case of `CC1=CC(C)(C)Nc2ccc(OC(=O)CN3C(=O)C4CCCCC4C3=O)cc21` (stereo unspecified) it was > 25 µM (inactive); in that of `CCOC(=O)c1c(NC(=O)c2cc3n(n2)C(C(F)(F)F)CC(c2cccs2)N3)sc(C)c1C` (stereo unspecified), 16.6 µM (inactive); in that of `O=C1CC(/C=C/c2ccccn2)=Nc2ccccc2N1`, 22.8 µM (inactive). With `CC(C)Oc1ncnc2c1[nH]c1ccccc12`, the EC50 was 3.18 µM (inactive). As to `NS(=O)(=O)c1ccc(NC(=O)COC(=O)c2c3c(nc4ccccc24)/C(=C\c2ccc4c(c2)OCO4)CCC3)cc1`, the EC50 is > 25 µM (inactive). For `CCN1C(=O)/C(=C/C=C2\C=CN(CC)c3ccccc32)SC1=S`, the EC50 was > 25 µM (inactive). As to `CC(=O)Nc1ccc(S(=O)(=O)Nc2cc(-c3ccccc3)nn2C)cc1`, the EC50 was > 25 µM (inactive). On to `Cc1ccc(C(=O)NNC2=Nc3cccc4cccc2c34)cc1`, for which the EC50 is > 25 µM (inactive). In the case of `O=C1NC(=O)N(Cc2ccco2)C(=O)/C1=C\c1cccn1CCOc1ccc(Cl)cc1`, the EC50 was > 25 µM (inactive).

Consider `CCc1ccc(NC(=O)COc2ccc(/C=C(/C#N)c3nc4ccccc4[nH]3)cc2OC)cc1`, for which the EC50 is 24 µM (inactive). With `CC1(C(O)(C#CCN2CCCCC2)c2ccccc2)CCCC1` (stereo unspecified), the EC50 was > 25 µM (inactive). In the case of `CC(C)(C)c1ccc(Cn2c(=N)n(CC(O)c3ccco3)c3ccccc32)cc1` (stereo unspecified), the EC50 was 11.4 µM (inactive). In the case of `CNC(=S)NNC(=O)c1ccc(=O)n(Cc2ccc(Cl)cc2Cl)c1` it was > 25 µM (inactive); in that of `Cn1c(C(=O)Nc2ccc3c(c2)OCCO3)cc2c(=O)n(C)c3ccccc3c21`, > 25 µM (inactive). For the compound `Oc1ccc(N=Nc2cccc(C(F)(F)F)c2)cc1C=Nc1ccc(N2CCOCC2)cc1`, the EC50 was 18.8 µM (inactive). In the case of `Cc1ccc(-c2nc(NC(=O)CSc3nnc4scc(-c5ccccc5)n34)ns2)cc1`, the EC50 was > 25 µM (inactive). In the case of `Cn1cc(Br)c(NC(=O)/C=C/C(=O)O)n1`, the EC50 was > 25 µM (inactive).

Turning to `COc1cccc(N2CCN(Cc3nc4scc(-c5ccccc5)c4c(=O)[nH]3)CC2)c1`, the EC50 was 21.9 µM (inactive). `CCOC(=O)c1c(NC(=O)C2COc3ccccc3O2)sc2c1CCN(Cc1ccccc1)C2` (stereo unspecified): the EC50 was > 25 µM (inactive). In the case of `COC(=O)c1c(C)[nH]c(O)c1C=Nc1ccc(C(C)C)cc1`, the EC50 is > 25 µM (inactive). For the compound `O=C(Nc1nc(-c2ccccn2)cs1)c1cccc(-n2cnnn2)c1`, the EC50 is > 25 µM (inactive). Take `Cc1ccc(Cn2ccc(-c3cnc(-c4ccccc4)s3)n2)cc1`: the EC50 was > 25 µM (inactive). With `COc1cccc(C2C=C(c3ccc(OC)cc3OC)Nc3nnnn32)c1` (stereo unspecified) the figure was > 25 µM (inactive); with `O=C(C1=NN[C@@H]2C(=O)N(c3cccc(F)c3)C(=O)[C@H]12)c1cnccn1`, > 25 µM (inactive).

Take `CCN(CC)c1ccc(/C=N/Nc2nc(C)cc(C)n2)cc1`: the EC50 was 23.2 µM (inactive). In the case of `CC1(C)CC(=O)C(C=Nc2ccc(C(=O)c3ccccc3)cc2N=CC2=C(O)CC(C)(C)CC2=O)=C(O)C1`, the EC50 was > 25 µM (inactive). With `CC(=O)c1cccc(NC(=O)/C=C/c2ccc([N+](=O)[O-])s2)c1` the figure was 19 µM (inactive).

As for `COC(=O)C1=C(O)C(C(=O)OC)C(c2ccc(C)cc2)C(C#N)(C#N)C1c1ccc(C)cc1` (stereo unspecified), the EC50 was > 25 µM (inactive). With `O=S(=O)(Nc1ccc(Cc2ccncc2)cc1)c1ccc(Cl)c(Cl)c1` the figure was > 25 µM (inactive). Consider `Nc1cccnc1Sc1cc(Cl)c(Cl)cc1Cl`, for which the EC50 is > 25 µM (inactive). With `CCOC(=O)c1cnc(COc2ccc(OC)cc2)[nH]c1=O` the figure was > 25 µM (inactive). On to `Cc1ccc(-n2nc3c(c2NC(=O)c2ccc(OC(C)C)cc2)CS(=O)C3)cc1` (stereo unspecified), for which the EC50 is > 25 µM (inactive). Regarding `O=C(c1cc(COc2ccc3ncccc3c2)on1)N1CCC(O)CC1`, the EC50 is > 25 µM (inactive).

For the compound `Cc1cc(=O)[nH]c(SCC(=O)/C=C2\N(C)c3ccccc3C2(C)C)n1`, the EC50 was > 25 µM (inactive). Consider `O=C(CC1NCCNC1=O)NC1Cc2ccccc2C1` (stereo unspecified), for which the EC50 was > 25 µM (inactive). With `O=C(O)/C=C/C(=O)Nc1ccc(-n2ccc(C(F)(F)F)n2)cc1`, the EC50 was > 25 µM (inactive).

As to `CC(C)N(C(=O)N1CCC(c2nc(-c3ccncc3)no2)CC1)C(C)C`, the EC50 is > 25 µM (inactive). With `COc1ccccc1NC(=O)c1ccc(Br)o1`, the EC50 is > 25 µM (inactive). As to `N#C/C(=C\c1ccccc1[N+](=O)[O-])C(=O)NC1CCCCC1`, the EC50 was > 25 µM (inactive). In the case of `COCc1ccc(C(=O)N2CCCC(C(=O)c3cc(F)ccc3F)C2)s1` (stereo unspecified) it was > 25 µM (inactive). Consider `O=c1cc(N2CCCCC2)c(-c2ccccc2)nn1Cc1c(Cl)cccc1Cl`, for which the EC50 was > 25 µM (inactive). Take `Cc1ccc(S(=O)(=O)N(C(=O)c2ccncc2)c2ccc(OC(=O)c3ccncc3)c3ccccc23)cc1`: the EC50 is 18.3 µM (inactive). On to `C[N+]1=C(/C=C/Nc2ccccc2Cl)C(C)(C)c2ccccc21`, for which the EC50 was > 25 µM (inactive). On to `Cc1cccc2nc3c(nc12)-c1ccccc1C3=O`, for which the EC50 was > 25 µM (inactive). With `CCN(CC)c1ccc(CC2C(=O)N(C)C(=O)N(C)C2=O)cc1`, the EC50 was > 25 µM (inactive). Turning to `COc1ccccc1OP(=O)(Nc1cccnc1)Oc1ccccc1OC`, the EC50 was > 25 µM (inactive). In the case of `Cc1ccc(Cn2c(=N)n(CC(O)c3ccco3)c3ccccc32)cc1` (stereo unspecified) it was > 25 µM (inactive). Consider `CCn1c(/C=C/N(C)c2ccccc2)[n+](CC)c2ccc(Cl)cc21`, for which the EC50 is 10.2 µM (inactive). Take `O=C(Nc1ccccc1C(=O)Nc1ccccc1C(=O)NCc1ccco1)c1ccco1`: the EC50 is > 25 µM (inactive). For the compound `O=C(O)c1ccc(/C=N/Nc2ncc(C(F)(F)F)cc2Cl)cc1`, the EC50 was > 25 µM (inactive).

Take `CCc1ccc2[nH]c(=O)c(CN(Cc3ccccc3OC)Cc3nnnn3Cc3ccco3)cc2c1`: the EC50 was > 25 µM (inactive). For the compound `Cc1cccc(CSc2nnc(-c3cnccn3)n2C)c1`, the EC50 is > 25 µM (inactive). Turning to `Cc1ccc(Oc2nnc(-c3ccccc3)c3ccccc23)cc1`, the EC50 was > 25 µM (inactive). For `N#C/C(=C\Nc1ccc2cn[nH]c2c1)c1nc(-c2ccc(Cl)cc2)cs1`, the EC50 was 24.4 µM (inactive). For `CCOC(=O)C1=C(N)Oc2c(oc(CO)cc2=O)C1c1ccc(Cl)cc1` (stereo unspecified), the EC50 was > 25 µM (inactive). With `Cc1ccc(-c2nc(CSCC(=O)N3CCN(c4ccccn4)CC3)c(C)o2)cc1` the figure was 15.7 µM (inactive).

Consider `CC(C(=O)c1c[nH]c2ccccc12)N1CCc2ccccc2C1` (stereo unspecified), for which the EC50 is > 25 µM (inactive). Consider `CCCCn1ccnc1C(=O)c1cccc(S(=O)(=O)N2CC(C)CC(C)C2)c1` (stereo unspecified), for which the EC50 was > 25 µM (inactive). For `N#CC1=C2N=C(N)c3ccccc3N2C2=C(C(=O)CCC2)C1c1ccc(Cl)cc1` (stereo unspecified), the EC50 was > 25 µM (inactive).

Take `COc1cccc(C(=O)N2CCN(CCCc3ccccc3)CC2)c1OC`: the EC50 was > 25 µM (inactive). `OC(CNCc1ccccc1)c1ccccc1` (stereo unspecified): the EC50 was > 25 µM (inactive). For the compound `CCOC(=O)COc1ccc(S(=O)(=O)Nc2ccc(C)cc2)cc1`, the EC50 was > 25 µM (inactive). As for `CN1C(=O)CC(c2ccco2)Sc2ccccc21` (stereo unspecified), the EC50 is > 25 µM (inactive). As to `CC(C)CC(N=C1NC(C)(C)Cc2ccccc21)C(=O)O` (stereo unspecified), the EC50 is > 25 µM (inactive). Consider `CSc1nc(Cl)c(Cc2ccc(OC(C)C)cc2)c(N(C)C)n1`, for which the EC50 is > 25 µM (inactive). On to `CCCN1C(=O)C2(C(C(=O)c3ccc(C)o3)=C(O)C(=O)N2CCCOC)c2ccccc21` (stereo unspecified), for which the EC50 is > 25 µM (inactive). With `CS(=O)(=O)N1CC2CCCN2c2cc(C(F)(F)F)ccc21` (stereo unspecified), the EC50 is > 25 µM (inactive). Consider `C=CCNC(=S)Nc1ccc2nc(C)oc2c1`, for which the EC50 is > 25 µM (inactive). With `Cc1ccccc1C(=O)NNc1ccc([N+](=O)[O-])cc1` the figure was > 25 µM (inactive). On to `O=C1CCCC2=C1C(c1ccc(Cl)cc1)n1c(s/c(=C\c3ccc4ccncc4c3)c1=O)=N2` (stereo unspecified), for which the EC50 was > 25 µM (inactive). As to `COc1ccc(S(=O)(=O)/N=C2/NC(=O)/C(=C\c3ccco3)S2)cc1`, the EC50 was > 25 µM (inactive).

`COc1ccc(CCc2nnc(CCC(=O)N(C)Cc3ccnc4ccccc34)o2)cc1`: the EC50 was 13.1 µM (inactive).
